We go through 6 compounds from paper PMC12707362, “Targeting Aurora Kinases as Essential Cell‐Cycle Regulators to Deliver Multi‐Stage Antimalarials Against Plasmodium Falciparum” (Angewandte Chemie (International Ed. in English), 2025).

≈ marks a conversion by molar mass, not a printed value. Read-outs that look alike come from different tables or passages of the source.

Broadly, the IC50 is the concentration at which inhibition is half-maximal. Usually CC50 stands for the concentration at which the toxic effect on the cells reaches its halfway point. Usually fraction unbound stands for the share of the substance not bound to proteins or other matrix. A lower fraction unbound goes with little free substance.

A short description of one data set: eLogD. Type of data set: physicochemical. The text has this: (§1) In vitro ADME analysis for logD, kinetic solubility (PBS, pH 7.4), human liver microsome clearance and t1/2, rat hepatocyte clearance and t1/2, and protein binding in Albumax media (simulating the malaria parasite culture media) was all performed as per standard assays by TCG LifeSciences.
The target in another data set is recombinant PfArk1 (Plasmodium falciparum, UniProt C6KSQ1). Briefly: KinaseSeeker three-hybrid split-luciferase competitive binding assay, PfArk1.
The nature of data set [1]: Human liver microsome clearance. It is filed as in vitro ADME. Particulars: human liver microsomes; for microsomal CLint: read-out: HL microsome CLint; for half-life: read-out: HL microsome t1/2.
Text: as §1
On the technique in general: Liver microsomes are a subcellular fraction often used to study metabolism.

In data set [2] the test system is multidrug-resistant PfK1 ABS parasites. Briefly: SYBR Green I proliferation assay, PfK1 asexual blood stages. Type of data set: cell-based. Particulars: Plasmodium falciparum. As to the method: (B) Antiplasmodial activity of nine anticancer aurora kinase inhibitors (selected based on their PfNF54 ABS activity) against P. falciparum multidrug-resistant ABS parasites (PfDd2 and PfK1). (C) Kinobead competitive inhibition data.
All inhibitors were dissolved in dimethyl sulfoxide (DMSO). Antiplasmodium activity of selected anti-cancer inhibitors was determined on P. falciparum NF54 and Dd2 strains, measuring SYBR Green I fluorescence (485 nm excitation, 538 nm emission) as an indicator of proliferation^[4]. Ring-stage ABS parasites (1% parasitemia, 1% hematocrit) were treated with compounds for 96 h at 37 °C with chloroquine disulphate (0.5 μM) as positive drug control. The activity of the inhibitors was tested against immature (>95% stage II/III) and late-stage (>90% stage IV/V) gametocytes using a luciferase reporter assay on 3D7elo1-pfs16-CBG99 ^[1]. […] Luciferase activity was determined using a non-lysing D-luciferin substrate (1 mM in 0.1 M citrate buffer, pH 5.5, 100 μL) and bioluminescence was detected with a GloMax® - Multi Detection System with Instinct® software.

The next data set can be described thus: Rat hepatocyte clearance. It is filed as in vitro ADME. Particulars: rat hepatocytes; for half-life: read-out: Rat hepatocyte t1/2.
Text: as §1

Another data set can be described thus: Kinetic solubility. Type of data set: physicochemical. Particulars: aqueous buffer, kinetic from dmso stock; PBS, pH 7.4; read-out: Kin sol pH 7.4.
Text: as §1

The next data set has as its system recombinant PfArk3. Nature of the data set: KinaseSeeker three-hybrid split-luciferase competitive binding assay, PfArk3. Also on record: species or system Plasmodium falciparum. The conditions noted are these: single point 1 µM.
Data set [3] deals with hepatocellular carcinoma (HepG2) cells. Briefly: Cytotoxicity counter-screening (MTT), HepG2. Particulars: read-out: HepG2 CC50; 48 h, MTT. How it is done: HepG2 and CHO cells were maintained at 37 °C, under a humidified atmosphere of 5% CO2, in DMEM high glucose media (Gibco) supplemented with 10% heat-inactivated FBS and 1% (v/v) Penicillin-Streptomycin antibiotics. […] The supernatant was discarded, and the cell pellet was resuspended in 1 mL DMEM media for cell counting by Trypan Blue. To determine the toxicity, cells were resuspended and seeded at a concentration of 1x10^4 cells/well in a 96-well plate and incubated for 24 h^[9,10]. Cells were treated in duplicate with a 10-fold serial dilution starting at 100 ug/mL of inhibitor in new media. After 48 h incubation, the viable cells were measured using the MTT tetrazolium reduction assay, where sterile 25 µL of a 5 mg/mL MTT was added to each well and incubated for 4 h before the […] formazan crystals were dissolved with 100 µL DMSO (Merck) per well. The absorbance, a measure of intracellular reduction of MTT, was measured at 540 nm (Multiskan GO). Emetine (50 µM) was included as a positive drug control, and the background was subtracted from all data before being normalised to the untreated^[9,10].
On the technique in general: Counterscreens check selectivity or assay interference.

The test system of another data set is recombinant PfNek1. Briefly: KinaseSeeker single-point assay, PfNek1. It is filed as binding, Plasmodium falciparum. Particulars: single point 1 µM.
Data set [4] concerns intracellular hemozoin formation in P. falciparum. Briefly: Cellular heme fractionation assay. Type of data set: cell-based, Plasmodium falciparum. The conditions noted are these: intracellular fractions. How it is done: The assay set-up followed that described in^[30,32] optimised to a multi-well colourimetric assay for determining heme species in P. falciparum. Briefly, P. falciparum ring-staged parasites were incubated at 2xIC50 value of the test inhibitor for 24 hours. Thereafter, the incubated parasites (trophozoites) were harvested and isolated through various steps of a cellular fractionation process. The cellular fractionations allow for direct quantification of the three major heme species in the trophozoites, namely hemoglobin, free heme, and hemozoin. These heme species can be determined spectroscopically using the aqueous pyridine-ferrochrome method. This method is based on the principle that aqueous pyridine forms a low-spin complex with heme but not hemozoin, and since the absorbance obeys Beer’s law, it allows for the quantification of heme concentration in solution. The various heme fractions were recovered and measured as follows, after the P. falciparum trophozoite cells were harvested following exposure to probe inhibitors:
Water (100 µL) was added to lyse the cells, and the suspension was sonicated for 5 min. This was followed by the addition of 50 µL 0.2M HEPES buffer pH 7.5, and then centrifugation at 3600 rpm for 20 min. The resulting supernatant (containing hemoglobin) was then transferred into an adjacent set of wells on the same plate. To which 50 µL of each of 4% SDS, 0.3 M NaCl and 25% pyridine were added, respectively. Thereafter, 200 µL of the resulting solution ([…]) was transferred to a set of wells on a separate 96-well plate for UV-vis analysis^[32,33].
The pellet from the centrifugation step described above consists of heme and hemozoin. […] Then 50 µL each of HEPES 0.2 M pH 7.5, 0.3 M NaCl, and 25% pyridine were added, respectively. The mixture was centrifugated at 3600 rpm and the supernatant (250 µL) was transferred to adjacent wells on a separate 96-well plate. Thereafter, 150 µL of water was added and 200 µL of the mixture transferred to a set of wells on a separate plate for UV-vis analysis^[32,33].
To the remaining pellet, 50 µL each of water and 0.3 M NaOH were added, and the mixture was sonicated for 15 min. After 30 min of incubation at room temperature, 50 µL each of HEPES 0.2 M pH 7.5, 0.3 M HCl, and 25% pyridine were added, respectively. To the resulting mixture (250 µL), 150 µL of water was then added, and 200 µL of this was transferred to a set of wells on a separate 96-well plate for UV-vis analysis^[32,33].
Cell counts for the assay were performed using the flow cytometry method described in^[33]. Cell counting determines the number of trophozoites per sample and, therefore, allows for the quantification of the amount of heme found in each individual cell.

A further data set has as its system Plasmodium kinases. Nature of the data set: Kinobead competitive inhibition. It is filed as binding. The conditions noted are these: 10 µM, log2 fold change below -1 versus vehicle.
Data set [5] is described as follows: Protein binding in Albumax II media. Particulars: bovine. Type of data set: in vitro ADME.
Data set [6] concerns asexual intra-erythrocytic parasites. Nature of the data set: Fixed-ratio isobologram analysis. The conditions noted are these: additivity/indifference 0.8–1.4, antagonism >1.4.
Method: Isobolograms were generated by plotting paired FIC values linearly, utilizing the average of three biological replicates, each performed in technical duplicates. The paired FIC values for each drug combination were analyzed, and the mean FIC values (ΣFIC) were calculated to delineate synergism (<0.8), additivity/indifference (0.8–1.4), or antagonism (>1.4).
The mark [7] stands for this setting: multidrug-resistant K1, read-out: Pf K1 ABS IC50.

Chain of recombinant PfArk1 (C6KSQ1 entry or part of it): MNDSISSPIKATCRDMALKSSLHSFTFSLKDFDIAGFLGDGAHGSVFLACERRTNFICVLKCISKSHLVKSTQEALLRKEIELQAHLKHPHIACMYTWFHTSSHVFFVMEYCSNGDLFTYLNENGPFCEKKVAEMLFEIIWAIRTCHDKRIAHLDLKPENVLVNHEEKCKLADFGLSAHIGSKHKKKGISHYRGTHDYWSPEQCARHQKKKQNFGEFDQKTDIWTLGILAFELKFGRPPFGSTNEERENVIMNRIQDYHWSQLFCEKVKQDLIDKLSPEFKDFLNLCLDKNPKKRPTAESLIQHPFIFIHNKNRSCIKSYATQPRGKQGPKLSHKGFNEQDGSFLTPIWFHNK
Method for recombinant PfArk1: (§2) Supplementary Figure S3: (A) Single-point activity profile of selected inhibitors at 1 µM against recombinant PfArk-1 and PfArk-3 proteins, utilising a three-hybrid split-luciferase competitive binding assay (KinaseSeeker™).
Method for recombinant PfArk3: as §2

On to `O=C(Nc1c[nH]nc1-c1nc2ccc(CN3CCOCC3)cc2[nH]1)NC1CC1` [AT83, AT9283], for which the “eLogD pH 7.4” value in the data set “eLogD” is 2.2. Besides, at recombinant PfArk1 (single point 1 µM), the “inhibition of PfArk1” value was 30%. In data set [1], the microsomal CLint stood at 3.5 µL/min/mg and the half-life was found to be 6.58 h. Moreover, the IC50 in data set [2] (setting [7]) came out at 102 nM. Further, in the data set “Rat hepatocyte clearance”, the “Rat hepatocyte CLint” value is on record as 12.6 µL min^−1/10e6 cells and the half-life worked out at 0.917 h. Also, the solubility kinetic in “Kinetic solubility” is 22.2 µM (≈ 8.47 µg/mL).

Regarding `CCN1CCN(C(=O)Cc2ccc(Nc3ncc(F)c(Nc4ccc(C(=O)Nc5ccccc5Cl)cc4)n3)cc2)CC1` [AAi I, Aurora A Inhibitor I], the IC50 in [2] (K1, read-out: Pf K1 ABS IC50) is 342 nM. Further, the “inhibition of PfArk3” value with recombinant PfArk3 came out at 40%.

Take `O=C(Nc1cccc(Nc2nccc(Nc3cccc(C(F)(F)F)c3)n2)c1)C1CC1` [Aki III, Aurora kinase inhibitor III]: the IC50 in [2] (setting [7]) amounted to 1380 nM.

In the case of `CCN(CCO)CCCOc1ccc2c(Nc3cc(CC(=O)Nc4cccc(F)c4)n[nH]3)ncnc2c1` [AZD-1152, AZD-1152-HQPA], the CC50 in data set [3] amounted to 25900 nM. For the same compound, the IC50 in data set [2] (setting [7]) is 341 nM.

As to `COc1cc(N2CCC(N3CCN(C)CC3)CC2)ccc1Nc1ncc(Cl)c(Nc2ccccc2S(=O)(=O)C(C)C)n1` [TAE684, NVP-TAE684], the “eLogD pH 7.4” value in “eLogD” stood at 3.4. In addition, the “effect on PfNek1” value in the data set on recombinant PfNek1 was 40%. Also, in data set [4], the free heme level result is given as “significant increase in free heme” and the hemozoin level entry was “decrease in hemozoin formation”. Moreover, in the data set on Plasmodium kinases, the “Plasmodium kinases competed from Kinobeads” value is “three Plasmodium kinases were competed from Kinobeads”. In addition, the IC50 at recombinant PfArk1 was determined as 146 ± 20 nM. The compound also had a fraction unbound in data set [5] of 0.2. In [1], the microsomal CLint is 25.4 µL/min/mg and the half-life came out at 0.917 h. Besides, in [6], the “ΣFIC50 in combination with CQ” value is listed as 1.3 and the “ΣFIC50 in combination with ML10” value amounted to 1.3. Besides, in “Rat hepatocyte clearance”, the “Rat hepatocyte CLint” value came out at 3.5 µL min^−1/10e6 cells and the half-life stood at 3.28 h. Besides, the solubility kinetic in “Kinetic solubility” is 198 µM (≈ 122 µg/mL).

Turning to `COc1cc2c(Nc3ccc(NC(=O)c4ccccc4)cc3)ncnc2cc1OCCCN1CCOCC1` [ZM-39, ZM-447439], in data set [4], the free heme level entry was “significant increase in free heme” and the hemozoin level entry is recorded as “decrease in hemozoin formation”. In addition, in data set [3], the cytotoxic concentration (CC50) turned out to be 26500 nM. Moreover, the “ΣFIC50 in combination with CQ” value in [6] is on record as 1.4. The IC50 in [2] (setting [7]) amounted to 277 nM.
